This passage reports EC50, inhibition and IC50 results from ChEMBL document CHEMBL3621093, “Design, synthesis and evaluation of thiohydantoin derivatives as potent topoisomerase I (Top1) inhibitors with anticancer activity” (Eur J Med Chem, 2015).

The source made the active and inactive calls. No cut-off for these calls is given here.

One data set has as its target T1, DNA topoisomerase 1 (Homo sapiens, UniProt P11387).
T1 sequence (P11387 whole entry): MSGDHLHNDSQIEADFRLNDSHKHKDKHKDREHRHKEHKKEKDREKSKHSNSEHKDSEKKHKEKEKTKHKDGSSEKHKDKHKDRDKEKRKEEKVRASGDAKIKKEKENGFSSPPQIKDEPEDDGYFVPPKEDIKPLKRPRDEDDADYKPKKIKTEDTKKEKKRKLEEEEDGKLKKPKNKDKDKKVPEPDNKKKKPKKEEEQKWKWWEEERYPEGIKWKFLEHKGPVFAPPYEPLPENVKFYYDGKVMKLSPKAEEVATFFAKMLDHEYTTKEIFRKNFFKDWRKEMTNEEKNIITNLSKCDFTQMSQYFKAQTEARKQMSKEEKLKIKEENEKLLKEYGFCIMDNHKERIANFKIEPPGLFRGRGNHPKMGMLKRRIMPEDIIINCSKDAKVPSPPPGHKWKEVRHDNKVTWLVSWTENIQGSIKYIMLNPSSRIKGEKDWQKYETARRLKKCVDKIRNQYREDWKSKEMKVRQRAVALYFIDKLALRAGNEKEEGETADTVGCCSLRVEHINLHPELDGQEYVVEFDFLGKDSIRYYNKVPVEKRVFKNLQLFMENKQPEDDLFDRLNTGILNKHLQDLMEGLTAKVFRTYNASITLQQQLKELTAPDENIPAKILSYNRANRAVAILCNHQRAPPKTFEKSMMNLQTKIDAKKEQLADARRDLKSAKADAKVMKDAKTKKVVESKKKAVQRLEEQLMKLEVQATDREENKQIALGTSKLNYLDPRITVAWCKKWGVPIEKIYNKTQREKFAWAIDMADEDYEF
Put plainly: Inhibition of wild type recombinant human Top1 expressed in baculovirus infected insect Sf9 cells assessed as decrease in supercoiled pBS(SK+) DNA isomer relaxation preincubated for 5 mins followed by pBS(SK+) DNA addition by agarose gel electrophoresis.

Data set [1] is described as follows: Inhibition of Leishmania donovani Top1 (large/ small subunits) expressed in Escherichia coli BL21 (DE3) pLysS cells assessed as decrease in supercoiled pBS(SK+) DNA isomer relaxation preincubated for 5 mins followed by pBS(SK+) DNA addition by agarose gel electrophoresis.
The target in data set [2] is T2, DNA topoisomerase 1 (Homo sapiens) (UniProt P11387).
T2 sequence (whole entry): T1 sequence (P11387 whole entry)
The data set can be described thus: Inhibition of wild type recombinant human Top1 expressed in baculovirus infected insect Sf9 cells assessed as decrease in supercoiled pBS(SK+) DNA isomer relaxation at 5 to 200 uM incubated simultaneously with enzyme and pBS(SK+) DNA for 30 mins by agarose gel electrophoresis.

For another data set, the system named is Leishmania donovani. Put plainly: Inhibition of Leishmania donovani Top1 (large/ small subunits) expressed in Escherichia coli BL21 (DE3) pLysS cells assessed as decrease in supercoiled pBS(SK+) DNA isomer relaxation at 5 to 200 uM incubated simultaneously with enzyme and pBS(SK+) DNA for 30 mins by agarose gel electrophoresis.
Data set [3] deals with T2, DNA topoisomerase 1 (Homo sapiens). Put plainly: Inhibition of human Top1 in human MCF7 cells assessed as decrease in supercoiled pBS(SK+) DNA isomer relaxation at 5 to 200 uM preincubated for 5 mins followed by pBS(SK+) DNA addition by agarose gel electrophoresis. In kind it is cell-based.
Data set [4] has the same target. The data set can be described thus: Inhibition of human Top1 in human MCF7 cells assessed as decrease in supercoiled pBS(SK+) DNA isomer relaxation at 5 to 200 uM incubated simultaneously with enzyme and pBS(SK+) DNA for 30 mins by agarose gel electrophoresis. In kind it is cell-based.
The target is the same in data set [5]. Put plainly: Inhibition of wild type recombinant human Top1 expressed in baculovirus infected insect Sf9 cells assessed as stabilization of Top1-cleavage complexes at 50 to 200 uM incubated for 30 mins by agarose gel electrophoresis.
For another data set, the system named is MCF7. Put plainly: Cytotoxicity against human MCF7 cells assessed as inhibition of cell viability after 72 hrs by MTT assay. In kind it is functional, cell-based. The note with it: MCF7, 72 h. (Tetrazolium dyes change colour on reduction, which living cells bring about.)
A further data set has as its system HeLa. Put plainly: Cytotoxicity against human HeLa cells assessed as inhibition of cell viability after 72 hrs by MTT assay. In kind it is functional, cell-based.
In a further data set the test system is HCT-116. Put plainly: Cytotoxicity against human HCT116 cells assessed as inhibition of cell viability after 72 hrs by MTT assay. In kind it is functional, cell-based. The note with it: HCT-116, 72 h.
The nature of data set [6]: Toxicity in HEK293 cells assessed as inhibition of cell viability after 72 hrs by MTT assay. In kind it is cell-based. The note with it: human.

Broadly, the EC50 is the concentration at which the effect is half-maximal. In the case of `COc1cc(/C=C2/NC(=S)NC2=O)cc(OC)c1OC`, the EC50 on DNA topoisomerase 1 was 93.2 µM; in data set [1], above 100 µM.

For `O=C1NC(=S)N/C1=C/c1ccc(-c2cccnc2)s1`, the EC50 at DNA topoisomerase 1 turned out to be 27.7 µM; in data set [1], 54.8 µM.

A word on the IC50: it is the concentration at which inhibition is half-maximal. Consider `COc1ccc(-c2ccc(/C=C3/NC(=S)NC3=O)s2)cn1`, for which the half-maximal effective concentration (EC50) on DNA topoisomerase 1 came to 10.1 µM; in data set [1], 65.2 µM. The inhibition entry (in data set [2]; in the data set with Leishmania donovani; in data set [3]; in data set [4]; in data set [5]) was “Active” in each case. Also, the results for the IC50 in the data set with MCF7, in the data set with HeLa and in the data set with HCT-116 were 11.4 µM, 1.1 µM and above 50 µM, respectively. Further, the IC50 at 72 h in data set [6] was above 50 µM.

`COc1cc(/C=C2/NC(=O)NC2=O)cc(OC)c1OC`: the EC50 (at DNA topoisomerase 1; in [1]) was above 100 µM each time.

On to `COc1ccc(-c2csc(/C=C3/NC(=S)NC3=O)c2)cn1`, for which the 50% effective concentration (EC50) on DNA topoisomerase 1 worked out at 30.3 µM; in [1], 63.1 µM.

Consider `COc1ccc(/C=C2/NC(=S)NC2=O)cc1`, for which the 50% effective concentration (EC50) (at DNA topoisomerase 1; in [1]) was above 100 µM each time.

As to `Cc1ccc(/C=C2/NC(=O)NC2=O)cc1`, the EC50 (on DNA topoisomerase 1; in data set [1]) was above 100 µM throughout.

For `COc1cccc(/C=C2/NC(=S)NC2=O)c1`, the EC50 (at DNA topoisomerase 1; in [1]) was above 100 µM throughout.

For `O=C1NC(=S)N/C1=C/c1ccc([N+](=O)[O-])cc1`, the EC50 (on DNA topoisomerase 1; in data set [1]) was above 100 µM in each case.

In the case of `Cn1cc(/C=C2/NC(=S)NC2=O)c2ccccc21`, the EC50 on DNA topoisomerase 1 was 48.9 µM; in data set [1] it was above 100 µM.

In the case of `COc1ccc(/C=C2/NC(=O)NC2=O)cc1OC`, the EC50 (on DNA topoisomerase 1; in [1]) was above 100 µM each time.

Consider `Cc1cc(C)cc(/C=C2/NC(=O)NC2=O)c1`, for which the EC50 (at DNA topoisomerase 1; in [1]) was above 100 µM each time.

On to `COc1ccc(/C=C2/NC(=S)NC2=O)cc1C`, for which the EC50 (on DNA topoisomerase 1; in data set [1]) was above 100 µM in each case.

With `COc1ccc(-c2csc(/C=C3/NC(=O)NC3=O)c2)cn1`, the concentration for a half-maximal effect (EC50) (on DNA topoisomerase 1; in data set [1]) was above 100 µM throughout.

Regarding `COc1ccc(/C=C2/NC(=S)NC2=O)cc1OC`, the concentration giving a half-maximal response (EC50) (at DNA topoisomerase 1; in [1]) was above 100 µM throughout.

With `O=C1NC(=S)N/C1=C/c1cc(Br)cs1`, the EC50 (on DNA topoisomerase 1; in data set [1]) was above 100 µM each time.

Consider `COc1ccc(/C=C2/NC(=O)NC2=O)cc1C`, for which the EC50 (at DNA topoisomerase 1; in data set [1]) was above 100 µM each time.

Consider `COc1ccc(-c2ccc(/C=C3/NC(=O)NC3=O)s2)cn1`, for which the EC50 (on DNA topoisomerase 1; in [1]) was above 100 µM in each case.

Consider `O=C1NC(=O)/C(=C\c2cc(Br)cs2)N1`, for which the EC50 (on DNA topoisomerase 1; in [1]) was above 100 µM each time.

On to `Cc1ccc(/C=C2/NC(=S)NC2=O)cc1`, for which the EC50 (at DNA topoisomerase 1; in data set [1]) was above 100 µM each time.
